According to ChEMBL document CHEMBL5113380, “Functionalized quinoxalinones as privileged structures with broad-ranging pharmacological activities” (Eur J Med Chem, 2022):
Converted amounts (≈) assume the structure as drawn.

Experiments:
Trichomonas vaginalis [1] = test: Antiprotozoal activity against Trichomonas vaginalis; type: functional, organism-based
Trichomonas vaginalis [2] = test: Antiprotozoal activity against Trichomonas vaginalis at 10 ug/ml measured at 48 hrs; type: functional; conditions: dose 10 µg/ml
Toxoplasma gondii = test: Anti-tachyzoite activity against Toxoplasma gondii at 100 uM; type: functional, type III
RAW264.7 [3] = test: Anti-inflammatory activity in mouse RAW264.7 cells assessed as inhibition of LPS-induced COX-2 expression at 15 uM; type: functional; design: scale not given: the % may be the effect or the level left
RAW264.7 [4] = test: Anti-inflammatory activity in mouse RAW264.7 cells assessed as inhibition of LPS-induced NO production at 10 uM after 24 hrs by Griess reagent-based assay; type: functional; design: scale not given: the % may be the effect or the level left
RAW264.7 [5] = test: Anti-inflammatory activity in mouse RAW264.7 cells assessed as inhibition of LPS-induced iNOS expression at 30 uM; type: functional; design: scale not given: the % may be the effect or the level left
Rattus norvegicus = test: Ulcerogenic activity in male albino rat assessed as ulceration at 25 mg/kg, po; type: functional
Mus musculus = test: Antiinflammatory activity against mouse assessed as reduction in carragenan-induced paw edema at 25 mg/kg,po treated 1 hr prior to carrageenan challenge; type: functional; design: scale not given: the % may be the effect or the level left
[6] = Metabolic stability in human liver microsomes assessed as compound remaining after 1 hr; type: ADME, Microsome; conditions: read-out: Stability
[7] = Inhibition of IgE-mediated passive cutaneous anaphylaxis in rat; type: functional
[8] = Inhibition of antigen-induced release of histamine (AIR) from rat peritoneal mast cells (RMC); type: functional, cell-based; conditions: Mast cell, read-out: I50
MV4-11 = test: Antiproliferative activity against human MV4-11 cells; type: functional, cell-based
[9] = target: Bromodomain-containing protein 4 (Homo sapiens, UniProt O60885); test: Inhibition of BRD4 (unknown origin) using histone-H4 as substrate incubated for 15 mins and measured after 1 hr by AlphaScreen assay
[10] = target: Human immunodeficiency virus type 1 reverse transcriptase (Human immunodeficiency virus 1) (UniProt Q72547); test: (§1) Inhibition of HIV1 reverse transcriptase
[11] = target: Human immunodeficiency virus type 1 reverse transcriptase (Human immunodeficiency virus 1, UniProt Q72547); test: as §1
[12] = tested on: Human immunodeficiency virus 1; test: Antiviral activity against HIV-1 A17; type: functional, organism-based; conditions: Human immunodeficiency virus 1, A17
[13] = tested on: Human immunodeficiency virus 1; test: Antiviral activity against HIV1 measured by CPE assay; type: functional, organism-based
Aminopeptidase N = Aminopeptidase N (Homo sapiens, UniProt P15144)
Sequence of Aminopeptidase N (P15144 whole entry): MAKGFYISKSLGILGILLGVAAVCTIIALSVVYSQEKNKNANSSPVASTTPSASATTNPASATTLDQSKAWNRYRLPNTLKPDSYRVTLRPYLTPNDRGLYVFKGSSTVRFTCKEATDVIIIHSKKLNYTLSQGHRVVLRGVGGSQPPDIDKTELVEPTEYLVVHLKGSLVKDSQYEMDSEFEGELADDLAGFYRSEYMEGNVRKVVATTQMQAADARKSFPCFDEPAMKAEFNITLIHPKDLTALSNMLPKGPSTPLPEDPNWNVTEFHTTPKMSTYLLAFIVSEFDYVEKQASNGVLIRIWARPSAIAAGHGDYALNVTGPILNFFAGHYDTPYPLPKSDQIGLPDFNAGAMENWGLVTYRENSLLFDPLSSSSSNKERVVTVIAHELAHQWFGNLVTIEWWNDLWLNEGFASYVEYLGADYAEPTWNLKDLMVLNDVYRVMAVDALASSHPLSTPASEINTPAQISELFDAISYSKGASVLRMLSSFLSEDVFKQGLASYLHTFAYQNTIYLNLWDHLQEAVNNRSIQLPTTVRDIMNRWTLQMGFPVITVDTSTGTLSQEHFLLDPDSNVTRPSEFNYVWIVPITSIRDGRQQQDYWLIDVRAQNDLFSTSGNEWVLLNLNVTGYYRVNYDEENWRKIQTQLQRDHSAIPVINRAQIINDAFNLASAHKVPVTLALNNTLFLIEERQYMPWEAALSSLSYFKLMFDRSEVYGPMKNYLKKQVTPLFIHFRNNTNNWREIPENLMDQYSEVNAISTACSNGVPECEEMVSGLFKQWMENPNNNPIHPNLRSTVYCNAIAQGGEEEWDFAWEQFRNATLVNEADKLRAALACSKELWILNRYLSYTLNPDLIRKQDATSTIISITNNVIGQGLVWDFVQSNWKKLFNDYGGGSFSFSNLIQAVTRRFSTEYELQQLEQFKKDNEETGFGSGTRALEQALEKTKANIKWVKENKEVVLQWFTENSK

[14] = tested on: Human immunodeficiency virus 1; test: Antiviral activity against HIV-1 74V; type: functional, organism-based; conditions: Human immunodeficiency virus 1, 74V
[15] = tested on: Human immunodeficiency virus 1; test: Antiviral activity against HIV-1 IIIB; type: functional, organism-based; conditions: Human immunodeficiency virus 1, IIIB
[16] = target: Glutamate receptor ionotropic AMPA (Homo sapiens, UniProt P42261+P42262+P42263+P48058); test: Agonist activity at AMPA receptor (unknown origin); type: protein-complex assay
[17] = Displacement of [3H]flunitrazepam from GABAA/benzodiazepine receptor complex (unknown origin); design: species or system Homo sapiens
[18] = Partial agonist activity at GABAA/benzodiazepine receptor complex (unknown origin) measured by [35S]TBPS based functional assay; design: species or system Homo sapiens
Hepatitis C virus = test: Antiviral activity against HCV; type: functional, organism-based, Hepacivirus hominis
[19] = Ratio CC50 for cytotoxicity against African green monkey Vero cells over IC50 for antitrypanosomal activity against […]; type: toxicity, cell-based; conditions: read-out: Ratio CC50/IC50
Vero = test: Cytotoxicity against African green monkey Vero cells at 300 uM; type: toxicity, cell-based; conditions: chlorocebus sabaeus
[20] = Cytotoxicity against African green monkey Vero cells; type: toxicity, cell-based; conditions: chlorocebus sabaeus
[21] = target: Voltage-gated inwardly rectifying potassium channel KCNH2 (Homo sapiens, UniProt Q12809); test: Inhibition of hERG; type: toxicity
Sequence of Voltage-gated inwardly rectifying potassium channel KCNH2 (Q12809 whole entry): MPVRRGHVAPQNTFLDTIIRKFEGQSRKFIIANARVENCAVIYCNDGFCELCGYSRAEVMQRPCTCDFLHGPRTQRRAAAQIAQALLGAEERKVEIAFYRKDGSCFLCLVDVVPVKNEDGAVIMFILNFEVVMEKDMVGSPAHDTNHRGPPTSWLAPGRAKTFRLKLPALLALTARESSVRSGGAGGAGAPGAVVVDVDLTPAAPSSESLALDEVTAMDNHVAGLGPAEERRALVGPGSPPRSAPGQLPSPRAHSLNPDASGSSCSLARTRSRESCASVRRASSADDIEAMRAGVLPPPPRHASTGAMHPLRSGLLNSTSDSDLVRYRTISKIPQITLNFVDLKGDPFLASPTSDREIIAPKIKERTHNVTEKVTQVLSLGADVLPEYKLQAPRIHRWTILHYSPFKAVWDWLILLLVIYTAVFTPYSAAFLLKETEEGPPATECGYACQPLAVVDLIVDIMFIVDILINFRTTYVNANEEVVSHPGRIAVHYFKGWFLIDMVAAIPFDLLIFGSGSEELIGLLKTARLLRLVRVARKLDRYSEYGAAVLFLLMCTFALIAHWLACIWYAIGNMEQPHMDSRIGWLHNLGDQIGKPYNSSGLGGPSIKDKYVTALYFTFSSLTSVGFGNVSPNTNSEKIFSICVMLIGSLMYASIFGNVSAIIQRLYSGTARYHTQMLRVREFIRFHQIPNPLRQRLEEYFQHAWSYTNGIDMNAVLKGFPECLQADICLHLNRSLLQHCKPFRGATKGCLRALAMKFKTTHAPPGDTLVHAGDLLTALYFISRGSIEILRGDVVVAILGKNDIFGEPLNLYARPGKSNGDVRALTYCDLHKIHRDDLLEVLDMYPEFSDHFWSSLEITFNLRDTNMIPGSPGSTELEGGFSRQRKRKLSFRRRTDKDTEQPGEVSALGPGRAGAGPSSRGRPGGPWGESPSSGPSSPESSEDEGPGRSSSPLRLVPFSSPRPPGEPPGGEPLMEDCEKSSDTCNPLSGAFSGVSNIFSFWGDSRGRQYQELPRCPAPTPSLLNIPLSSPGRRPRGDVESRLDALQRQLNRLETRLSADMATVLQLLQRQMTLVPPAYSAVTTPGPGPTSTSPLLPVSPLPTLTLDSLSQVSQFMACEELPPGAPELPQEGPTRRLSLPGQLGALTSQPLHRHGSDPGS

Staphylococcus aureus [22] = test: Antibacterial activity against methicillin-sensitive Staphylococcus aureus; type: functional
Staphylococcus aureus [23] = test: Antibacterial activity against methicillin-resistant Staphylococcus aureus; type: functional
Topoisomerase IV = Topoisomerase IV (Staphylococcus aureus, UniProt P0C1S7+P0C1U9); test: Inhibition of Staphylococcus aureus topoisomerase 4; type: protein-complex assay
Sequence of Topoisomerase IV (P0C1U9 whole entry): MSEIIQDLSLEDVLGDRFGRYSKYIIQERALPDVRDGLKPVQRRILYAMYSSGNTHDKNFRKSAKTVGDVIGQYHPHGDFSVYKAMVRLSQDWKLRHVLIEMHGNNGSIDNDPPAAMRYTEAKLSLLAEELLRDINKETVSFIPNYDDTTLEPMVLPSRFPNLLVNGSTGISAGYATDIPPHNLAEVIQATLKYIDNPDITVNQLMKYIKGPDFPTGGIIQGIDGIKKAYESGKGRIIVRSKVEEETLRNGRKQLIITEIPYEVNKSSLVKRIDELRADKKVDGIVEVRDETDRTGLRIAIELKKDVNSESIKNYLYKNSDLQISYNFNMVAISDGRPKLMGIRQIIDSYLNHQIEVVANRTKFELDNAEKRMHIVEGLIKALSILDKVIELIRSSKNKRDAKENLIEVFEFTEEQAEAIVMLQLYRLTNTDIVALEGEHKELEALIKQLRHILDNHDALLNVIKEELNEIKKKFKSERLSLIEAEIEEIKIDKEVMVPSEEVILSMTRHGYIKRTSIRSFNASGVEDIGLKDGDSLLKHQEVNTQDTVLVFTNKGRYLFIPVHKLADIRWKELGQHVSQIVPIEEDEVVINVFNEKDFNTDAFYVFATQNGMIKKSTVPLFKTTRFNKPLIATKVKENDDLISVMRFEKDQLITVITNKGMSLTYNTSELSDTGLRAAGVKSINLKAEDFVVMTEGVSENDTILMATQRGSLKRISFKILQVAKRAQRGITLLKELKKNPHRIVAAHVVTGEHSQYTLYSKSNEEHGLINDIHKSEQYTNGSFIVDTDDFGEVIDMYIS
Sequence of Topoisomerase IV (P0C1S7 whole entry): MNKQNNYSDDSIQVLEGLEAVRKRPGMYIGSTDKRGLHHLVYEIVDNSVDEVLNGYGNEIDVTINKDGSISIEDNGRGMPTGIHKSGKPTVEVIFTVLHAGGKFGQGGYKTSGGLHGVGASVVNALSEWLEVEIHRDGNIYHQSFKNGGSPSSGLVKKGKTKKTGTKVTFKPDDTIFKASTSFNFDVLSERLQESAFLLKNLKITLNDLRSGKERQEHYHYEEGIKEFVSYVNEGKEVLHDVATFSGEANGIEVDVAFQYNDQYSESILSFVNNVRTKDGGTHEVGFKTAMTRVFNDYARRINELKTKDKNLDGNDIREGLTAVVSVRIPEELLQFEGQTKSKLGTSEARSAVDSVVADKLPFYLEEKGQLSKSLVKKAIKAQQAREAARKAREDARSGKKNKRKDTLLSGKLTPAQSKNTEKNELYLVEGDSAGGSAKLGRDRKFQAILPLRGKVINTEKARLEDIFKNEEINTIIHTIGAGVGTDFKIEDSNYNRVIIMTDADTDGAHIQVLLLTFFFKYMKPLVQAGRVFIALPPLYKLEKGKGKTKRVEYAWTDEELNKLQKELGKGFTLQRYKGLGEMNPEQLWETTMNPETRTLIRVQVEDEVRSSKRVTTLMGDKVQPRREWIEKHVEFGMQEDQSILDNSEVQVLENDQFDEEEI

Plasmodium yoelii yoelii [24] = test: Antiplasmodial activity against chloroquine-sensitive Plasmodium yoelii yoelii lethal strain infected in CD1 mouse measured for 4 days; type: functional; conditions: time 4 day
Plasmodium yoelii yoelii [25] = test: Antiplasmodial activity against chloroquine-sensitive Plasmodium yoelii yoelii lethal strain infected in CD1 mouse assessed as cured animal rate at 20 mg/kg, po; type: functional
[26] = Inhibition of lipid peroxidation at 100 uM by measuring MDA concentration; type: functional; design: Activity: scale not given: the % may be the effect or the level left
[27] = Inhibition of ALR1 (unknown origin) relative to control; design: concentration or dose not given beside the values; conditions: Homo sapiens; concentration not given here
[28] = Antioxidant activity assessed as DPPH radical scavenging activity at 50 uM; type: functional
[29] = Inhibition of ALR2 (unknown origin); design: species or system Homo sapiens
[30] = Inhibition of lipid peroxidation at 10 uM by measuring MDA concentration; type: functional; design: scale not given: the % may be the effect or the level left
[31] = Antioxidant activity assessed as DPPH radical scavenging activity at 100 uM; type: functional
A549 = test: Antiproliferative activity against human A549 cells; type: functional, cell-based
HT-29 = test: Antiproliferative activity against human HT-29 cells; type: functional, cell-based
[32] = target: Hepatocyte growth factor receptor (Homo sapiens, UniProt P08581); test: Inhibition of c-MET (unknown origin)
Sequence of Hepatocyte growth factor receptor (P08581 whole entry): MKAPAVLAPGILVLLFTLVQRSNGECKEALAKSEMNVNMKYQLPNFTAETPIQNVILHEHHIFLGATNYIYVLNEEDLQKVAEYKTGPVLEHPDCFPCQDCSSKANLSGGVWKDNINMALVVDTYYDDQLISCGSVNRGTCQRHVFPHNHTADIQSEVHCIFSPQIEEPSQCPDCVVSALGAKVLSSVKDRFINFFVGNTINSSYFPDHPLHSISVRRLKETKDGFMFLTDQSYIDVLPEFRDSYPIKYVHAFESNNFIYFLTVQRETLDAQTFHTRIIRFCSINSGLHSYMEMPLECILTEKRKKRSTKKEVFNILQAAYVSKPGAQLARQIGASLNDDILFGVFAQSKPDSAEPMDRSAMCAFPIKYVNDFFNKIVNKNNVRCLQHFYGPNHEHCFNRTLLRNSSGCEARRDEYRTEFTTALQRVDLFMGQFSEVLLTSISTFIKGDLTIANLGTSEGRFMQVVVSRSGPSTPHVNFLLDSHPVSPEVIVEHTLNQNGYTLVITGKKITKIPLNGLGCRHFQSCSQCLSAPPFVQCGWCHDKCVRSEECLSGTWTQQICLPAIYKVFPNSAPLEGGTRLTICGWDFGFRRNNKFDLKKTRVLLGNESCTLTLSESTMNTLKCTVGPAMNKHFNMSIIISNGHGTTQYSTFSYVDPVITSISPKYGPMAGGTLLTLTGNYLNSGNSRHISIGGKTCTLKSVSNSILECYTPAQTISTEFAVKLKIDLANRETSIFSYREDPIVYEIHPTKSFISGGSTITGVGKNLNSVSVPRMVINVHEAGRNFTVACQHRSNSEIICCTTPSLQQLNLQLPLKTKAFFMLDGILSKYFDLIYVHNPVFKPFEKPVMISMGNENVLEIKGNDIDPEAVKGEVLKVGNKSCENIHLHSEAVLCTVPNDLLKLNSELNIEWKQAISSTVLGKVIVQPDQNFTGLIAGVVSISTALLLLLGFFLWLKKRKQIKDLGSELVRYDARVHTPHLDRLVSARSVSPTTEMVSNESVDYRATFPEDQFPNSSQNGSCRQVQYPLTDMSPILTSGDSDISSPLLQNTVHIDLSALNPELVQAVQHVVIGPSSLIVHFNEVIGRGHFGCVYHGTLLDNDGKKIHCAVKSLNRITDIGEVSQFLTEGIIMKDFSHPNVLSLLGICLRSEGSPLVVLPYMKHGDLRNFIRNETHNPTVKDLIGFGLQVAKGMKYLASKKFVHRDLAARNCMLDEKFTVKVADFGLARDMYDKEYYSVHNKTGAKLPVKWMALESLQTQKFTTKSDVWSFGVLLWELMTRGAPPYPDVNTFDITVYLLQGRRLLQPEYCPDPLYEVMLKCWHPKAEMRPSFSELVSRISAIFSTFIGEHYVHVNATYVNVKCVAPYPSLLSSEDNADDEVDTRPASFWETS

NCI-H460 = test: Antiproliferative activity against human NCI-H460 cells; type: functional, cell-based

For `CCOC(=O)C(C)c1nc2ccc(C(F)(F)F)cc2[nH]c1=O` (stereo not given), which MIC (Trichomonas vaginalis [1]) is on record?
Its MIC is 100 µg/mL (≈ 318 µM).

With `O=C1CN(CCCCCN2CCCCCC2)c2ccc([N+](=O)[O-])cc2N1` as the molecule, how does the Activity (Trichomonas vaginalis [2]) read?
Its Activity is 2.35%.

What about the Activity (Toxoplasma gondii) of the same molecule?
Its Activity is 88%.

With `COc1cc(Cn2c(=O)c3nnc(C(N)=O)n3c3ccccc32)cc(OC)c1OC` as the molecule, how does the Activity (RAW264.7 [3]) read?
Its Activity is 53.442%.

And the Activity (RAW264.7 [4])?
Its Activity is 38.82%.

And the Activity (RAW264.7 [5])?
Its Activity is 39.89%.

What about the Activity (Rattus norvegicus) of the same molecule?
The Activity was 20%.

And the Activity (Mus musculus)?
The Activity was 50.83%.

For `COc1ccc(N2CCN(CCCNC(=O)Cn3c(=O)c4cccn4c4c(C)ccnc43)CC2)cc1`, which remaining at 1 h [6] is on record?
The remaining at 1 h was 22%.

What does the source list for `O=C([O-])c1cc(=O)c2c(OCC(O)COc3cccc4oc(C(=O)[O-])cc(=O)c34)cccc2o1.[Na+].[Na+]` [CROMOLYN SODIUM]?
ED50 [7]: 6 mg/kg; IC50 [8]: 3000 nM

What does the source list for `CCC1C(=O)Nc2ccc(-c3c(C)noc3C)cc2N1Cc1ccccc1` (stereo not given)?
IC50 (MV4-11): 253 nM; IC50 [9]: 73 nM

What does the source list for `CCOC(=O)N1c2ccccc2NC(=O)[C@]1(C#CC1CC1)C(F)(F)F`?
IC90 [10]: 4.8 nM; IC50 [11]: 45 nM

What does the source list for `COc1cccc(/C=N/NC(=O)Cn2c(=O)c(C)nc3ccccc32)c1O`?
EC50 [12]: 2460 nM; EC50 [13]: 2790 nM; IC50 (Aminopeptidase N): 80.9 µM; EC50 [14]: 3.48 µM; EC50 [15]: 6.05 µM

With `N[C@@H](Cn1c(=O)c(=O)[nH]c2ccccc21)C(=O)O` as the molecule, how does the EC50 [16] read?
Its EC50 is 3 µM.

For `CC(C)n1c(=O)c2c(-c3ccc(F)cc3)ncn2c2cccc(Cl)c21`, which Ki [17] is on record?
Its Ki is 14.6 nM.

And the EC50 [18]?
The EC50 was 2.04 nM.

For `CCC(CC)N(C)c1cc2ncc(=O)[nH]c2cc1Nc1nc(-c2ccccc2)cs1`, which EC50 (Hepatitis C virus) is on record?
Its EC50 is 1270 nM.

With `O=C1CN(CCCN2CCCCC2)c2ccc([N+](=O)[O-])cc2N1` as the molecule, how does the selectivity ratio [19] read?
The selectivity ratio was > 10.

What about the Activity (Vero) of the same molecule?
Its Activity is 3.26%.

What about the CC50 [20] of the same molecule?
Its CC50 is > 300 µM.

Which results are given for `COc1ccc2nccc(CC[C@H]3OC[C@H](NC(=O)c4ccc5c(c4)OCCO5)CO3)c2c1`?
IC50 [21]: > 100 µM; MIC (Staphylococcus aureus [22]): 1 µg/mL (≈ 2.22 µM); MIC (Staphylococcus aureus [23]): 1 µg/mL (≈ 2.22 µM); IC50 (Topoisomerase IV): > 200 µM

For `CN1C(=O)CN(CCCCCN2CCCCC2)c2ccc([N+](=O)[O-])cc21`, which LD50 (Plasmodium yoelii yoelii [24]; Plasmodium yoelii, 96 h) is on record?
The LD50 was 56.5 mg/kg.

What about the LD10 (Plasmodium yoelii yoelii [24]) of the same molecule?
Its LD10 is 20.58 mg/kg.

And the Activity (Toxoplasma gondii)?
Its Activity is 96%.

What about the Activity (Plasmodium yoelii yoelii [25]) of the same molecule?
Its Activity is 20%.

With `O=C(O)Cn1c(=O)c(Oc2cc(O)cc(O)c2)nc2ccc(Cl)cc21` as the molecule, how does the Activity [26] read?
Its Activity is 55.3%.

And the inhibition [27]?
Its inhibition is 38.2%.

And the Activity [28]?
The Activity was 83.7%.

And the IC50 [29]?
Its IC50 is 566 nM.

And the Activity [30]?
The Activity was 26.6%.

And the Activity [31]?
The Activity was 91.3%.

What does the source list for `O=C(Nc1ccc(Oc2ccnc(NC(=O)C3CC3)c2)cc1)c1nc2ccccc2n(-c2ccc(F)cc2)c1=O`?
IC50 (A549): 1570 nM; IC50 (HT-29): 650 nM; IC50 [32]: 1.91 nM; IC50 (NCI-H460): 940 nM
